The values that follow come from ChEMBL document CHEMBL3525961, “Identification of human UDP-glucuronosyltransferases involved in N-carbamoyl glucuronidation of lorcaserin” (Drug Metab Dispos, 2012).

Data set [1] has as its system Liver microsome. Description: Drug metabolism in human liver microsomes assessed as N-carbamoyl glucuronide formation. Format: ADME. In general terms: Liver microsomes are vesicles of endoplasmic reticulum, rich in cytochrome P450 enzymes.
Data set [2] concerns Liver microsome. Kind of data set: Drug metabolism in human liver microsomes assessed as N-carbamoyl glucuronide formation per mg protein. Format: ADME.
Data set [3] deals with Liver microsome. Kind of data set: Drug metabolism in human liver microsomes assessed as intrinsic clearance for N-carbamoyl glucuronide formation per mg protein. It counts as ADME.
Data set [4] addresses T1, UDP-glucuronosyltransferase 1A9 (Homo sapiens, UniProt O60656).
T1 sequence (O60656 whole entry): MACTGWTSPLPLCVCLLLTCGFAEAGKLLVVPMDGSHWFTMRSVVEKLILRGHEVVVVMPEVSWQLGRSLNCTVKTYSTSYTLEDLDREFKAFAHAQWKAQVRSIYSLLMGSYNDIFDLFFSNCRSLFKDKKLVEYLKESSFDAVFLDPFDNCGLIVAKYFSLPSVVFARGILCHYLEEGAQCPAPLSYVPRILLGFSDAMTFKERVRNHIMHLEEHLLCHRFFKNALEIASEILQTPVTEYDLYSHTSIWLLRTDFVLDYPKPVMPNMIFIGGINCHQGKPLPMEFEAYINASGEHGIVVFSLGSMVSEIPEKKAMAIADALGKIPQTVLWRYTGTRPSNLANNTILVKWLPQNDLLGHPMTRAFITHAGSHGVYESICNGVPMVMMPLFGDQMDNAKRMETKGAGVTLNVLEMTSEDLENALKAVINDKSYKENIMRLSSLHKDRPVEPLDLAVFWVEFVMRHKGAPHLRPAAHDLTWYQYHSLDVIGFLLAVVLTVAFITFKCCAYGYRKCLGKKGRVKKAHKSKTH
Kind of data set: Activity of human recombinant UGT1A9 expressed in insect cells assessed as intrinsic clearance for enzyme-mediated N-carbamoyl glucuronide formation per mg protein. Format: ADME.

Data set [5] addresses T2, UDP-glucuronosyltransferase 2B7 (Homo sapiens, UniProt P16662).
T2 sequence (P16662 whole entry): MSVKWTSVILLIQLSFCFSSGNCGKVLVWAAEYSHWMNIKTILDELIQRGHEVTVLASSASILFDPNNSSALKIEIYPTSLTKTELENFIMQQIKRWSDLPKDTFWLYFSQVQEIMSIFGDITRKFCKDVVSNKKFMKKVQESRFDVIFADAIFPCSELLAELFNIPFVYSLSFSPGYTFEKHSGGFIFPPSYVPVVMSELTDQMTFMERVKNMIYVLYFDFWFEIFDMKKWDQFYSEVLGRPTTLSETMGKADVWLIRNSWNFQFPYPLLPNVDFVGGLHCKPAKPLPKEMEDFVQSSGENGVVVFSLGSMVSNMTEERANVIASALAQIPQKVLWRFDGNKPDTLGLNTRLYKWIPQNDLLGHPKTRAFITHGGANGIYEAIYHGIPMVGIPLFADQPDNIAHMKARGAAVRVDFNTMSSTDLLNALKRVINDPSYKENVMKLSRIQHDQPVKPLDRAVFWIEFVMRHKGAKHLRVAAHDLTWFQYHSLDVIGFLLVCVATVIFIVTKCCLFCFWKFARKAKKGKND
Description: Activity of human recombinant UGT2B7 expressed in insect cells assessed as intrinsic clearance for enzyme-mediated N-carbamoyl glucuronide formation per mg protein. It counts as ADME.

Data set [6] addresses T3, UDP-glucuronosyltransferase 2B15 (Homo sapiens, UniProt P54855).
T3 sequence (P54855 whole entry): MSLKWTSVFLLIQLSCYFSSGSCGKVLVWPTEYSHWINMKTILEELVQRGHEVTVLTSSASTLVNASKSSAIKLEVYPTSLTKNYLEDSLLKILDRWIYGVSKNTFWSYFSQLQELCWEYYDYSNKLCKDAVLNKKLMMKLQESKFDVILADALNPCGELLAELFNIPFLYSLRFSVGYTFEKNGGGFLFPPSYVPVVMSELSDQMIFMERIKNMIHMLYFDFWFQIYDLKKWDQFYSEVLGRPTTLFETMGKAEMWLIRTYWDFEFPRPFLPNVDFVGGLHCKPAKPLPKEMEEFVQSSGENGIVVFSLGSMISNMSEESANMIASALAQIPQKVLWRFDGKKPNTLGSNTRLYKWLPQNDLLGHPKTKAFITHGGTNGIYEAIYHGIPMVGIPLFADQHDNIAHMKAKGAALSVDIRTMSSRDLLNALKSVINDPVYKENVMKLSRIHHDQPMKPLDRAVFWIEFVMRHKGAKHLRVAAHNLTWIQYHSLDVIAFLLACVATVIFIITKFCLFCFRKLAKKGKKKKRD
Description: Activity of human recombinant UGT2B15 expressed in insect cells assessed as intrinsic clearance for enzyme-mediated N-carbamoyl glucuronide formation per mg protein. Format: ADME.

The target of data set [7] is T4, UDP-glucuronosyltransferase 2B17 (Homo sapiens, UniProt O75795).
T4 sequence (O75795 whole entry): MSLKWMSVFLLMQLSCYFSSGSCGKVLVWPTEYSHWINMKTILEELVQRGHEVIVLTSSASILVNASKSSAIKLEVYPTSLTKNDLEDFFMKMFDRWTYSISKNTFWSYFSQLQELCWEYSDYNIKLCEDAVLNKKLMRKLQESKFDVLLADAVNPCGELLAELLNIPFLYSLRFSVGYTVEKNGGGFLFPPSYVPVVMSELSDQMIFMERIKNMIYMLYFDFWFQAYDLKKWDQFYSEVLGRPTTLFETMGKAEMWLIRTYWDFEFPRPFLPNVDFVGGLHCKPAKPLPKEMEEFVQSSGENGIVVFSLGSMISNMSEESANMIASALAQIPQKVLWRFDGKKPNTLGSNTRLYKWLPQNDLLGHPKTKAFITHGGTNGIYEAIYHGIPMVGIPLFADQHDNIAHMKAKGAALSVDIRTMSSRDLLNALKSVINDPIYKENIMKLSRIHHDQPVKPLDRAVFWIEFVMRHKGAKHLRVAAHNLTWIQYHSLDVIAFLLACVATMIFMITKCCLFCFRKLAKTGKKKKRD
Kind of data set: Activity of human recombinant UGT2B17 expressed in insect cells assessed as intrinsic clearance for enzyme-mediated N-carbamoyl glucuronide formation per mg protein. It counts as ADME.

Data set [8] concerns Liver. Kind of data set: Drug metabolism in human liver assessed as N-carbamoyl glucuronide formation per mg protein at 100 uM. Format: ADME, tissue-based.
Data set [9] in a line: Drug metabolism in human kidney assessed as N-carbamoyl glucuronide formation per mg protein at 100 uM. It counts as ADME, tissue-based.
A short description of data set [10]: Drug metabolism in human intestine assessed as N-carbamoyl glucuronide formation per mg protein at 100 uM. It counts as ADME, tissue-based.
Data set [11] is described as follows: Drug metabolism in smoking human lung assessed as N-carbamoyl glucuronide formation per mg protein at 100 uM. It counts as ADME, tissue-based.
A short description of data set [12]: Drug metabolism in non-smoking human lung assessed as N-carbamoyl glucuronide formation per mg protein at 100 uM. Format: ADME, tissue-based.
Data set [13] concerns the target T5, UDP-glucuronosyltransferase 1A6 (Homo sapiens, UniProt P19224).
T5 sequence (P19224 whole entry): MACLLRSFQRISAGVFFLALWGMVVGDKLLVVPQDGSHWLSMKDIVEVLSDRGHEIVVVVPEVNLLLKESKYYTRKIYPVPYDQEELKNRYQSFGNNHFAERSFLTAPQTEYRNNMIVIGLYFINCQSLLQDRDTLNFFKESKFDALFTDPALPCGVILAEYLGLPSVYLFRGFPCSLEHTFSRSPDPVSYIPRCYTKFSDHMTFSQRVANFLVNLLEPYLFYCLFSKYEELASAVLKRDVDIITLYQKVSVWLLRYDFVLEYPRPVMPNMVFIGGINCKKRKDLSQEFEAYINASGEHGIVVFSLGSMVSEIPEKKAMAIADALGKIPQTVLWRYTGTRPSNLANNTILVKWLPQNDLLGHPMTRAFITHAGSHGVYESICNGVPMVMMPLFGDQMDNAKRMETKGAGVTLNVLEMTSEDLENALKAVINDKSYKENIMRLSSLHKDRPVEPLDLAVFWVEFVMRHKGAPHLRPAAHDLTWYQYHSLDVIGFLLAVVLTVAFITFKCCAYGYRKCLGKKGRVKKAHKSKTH
Kind of data set: Activity of human recombinant UGT1A6 expressed in insect cells assessed as intrinsic clearance for enzyme-mediated N-carbamoyl glucuronide formation. Format: ADME.

Data set [14] concerns the target T1, UDP-glucuronosyltransferase 1A9. Description: Activity of human recombinant UGT1A9 expressed in insect cells assessed as intrinsic clearance for enzyme-mediated N-carbamoyl glucuronide formation. Format: ADME.
In data set [15] the target is T2, UDP-glucuronosyltransferase 2B7. Kind of data set: Activity of human recombinant UGT2B7 expressed in insect cells assessed as intrinsic clearance for enzyme-mediated N-carbamoyl glucuronide formation. Format: ADME.
The target in data set [16] is T3, UDP-glucuronosyltransferase 2B15. Kind of data set: Activity of human recombinant UGT2B15 expressed in insect cells assessed as intrinsic clearance for enzyme-mediated N-carbamoyl glucuronide formation. Format: ADME.
Data set [17] concerns the target T4, UDP-glucuronosyltransferase 2B17. Kind of data set: Activity of human recombinant UGT2B17 expressed in insect cells assessed as intrinsic clearance for enzyme-mediated N-carbamoyl glucuronide formation. It counts as ADME.
For data set [18], the system named is Liver microsome. Description: Drug metabolism in human liver microsomes assessed as 100 uM eugenol-mediated inhibition of N-carbamoyl glucuronide formation at 1 uM. It counts as ADME.
In data set [19] the test system is Liver microsome. Kind of data set: Drug metabolism in human liver microsomes assessed as 25 uM bisphenol-mediated inhibition of N-carbamoyl glucuronide formation at 100 uM. Format: ADME.
For data set [20], the system named is Liver microsome. Kind of data set: Drug metabolism in human liver microsomes assessed as 100 uM eugenol-mediated inhibition of N-carbamoyl glucuronide formation at 100 uM. It counts as ADME.
Data set [21] has as its system Liver microsome. Description: Drug metabolism in human liver microsomes assessed as N-carbamoyl glucuronide formation at 100 uM in presence of 5 uM mefenamic acid. It counts as ADME.
The test system of data set [22] is Liver microsome. Description: Drug metabolism in human liver microsomes assessed as N-carbamoyl glucuronide formation at 100 uM in presence of 5 uM bisphenol. Format: ADME.
The subject of data set [23] is Liver microsome. Description: Drug metabolism in human liver microsomes assessed as N-carbamoyl glucuronide formation at 100 uM in presence of 20 uM eugenol. Format: ADME.

For orientation: Km means the substrate concentration at which the rate is half of its maximum. As a reminder, the Vmax is the rate approached at saturating substrate. Take `C[C@H]1CNCCc2ccc(Cl)cc21.Cl.O`: the Km in data set [1] was 128 µM. Besides, the Vmax in data set [2] is on record as 2379.2 pmol/min. The CLH in data set [3] is 18.57 µL/min/g. Further, the CL in [4] turned out to be 0.199 µL/min/g; in data set [5] it was 1.987 µL/min/g; in data set [6], 4.601 µL/min/g; in [7], 0.611 µL/min/g. For the same molecule, the Drug metabolism in data set [8] is given as 1028 pmol/min; in data set [9], 185.9 pmol/min; in [10] it was 133.1 pmol/min; in data set [11], 1.116 pmol/min; in [12], 0.493 pmol/min; in [13] it was “metabolite_detected”. In addition, the Drug metabolism result in [14], in data set [15], in data set [16], in [17], in data set [21] and in [22] was “metabolite_detected” throughout. Moreover, in [23], the Drug metabolism result is on record as “metabolite_detected”. The “inhibition (INH)” value in [18] is 18%; in data set [19] it was 30%; in [20] it was 11%.
